Results as given in US20080081796A1, “TREATMENT OF MUCOSITIS” (priority 2002, published 2008).

Tested on: oral mucositis induced by acute radiation
Assay: oral mucositis induced by acute radiation in an animal model (Animal Study and Animal Study II)
Type: in vivo, Golden Syrian hamsters
Conditions: for severity of oral mucositis (average oral mucositis scores, FIG. 1): topical TID 0.25 ml to left cheek pouch, 40 Gy radiation on day 0, versus water control
Source text: The objective of this study was to evaluate the effect of the nucleoside derivative, 5′-adenosine-diphosphate ribose, when administered topically, on the frequency, severity and duration of oral mucositis induced by acute radiation in an animal model.
The animals in the study ([…] Golden Syrian hamsters, Charles River Lab., ages 5-6 weeks, approximately 90 g average body weight) were randomly and prospectively divided into three groups of eight animals each. The particular test material to be applied to the animal mucosa during the study essentially defined each group. The test materials were water (Group 1 control), ADP-ribose 100 μg/ml in water (Group 2) and ADP-ribose 500 μg/ml in water (Group 3).
Mucositis was induced in the animals with a standardized acute radiation protocol. A single dose of radiation (40 Gy/dose) was administered to each animal on day 0. Irradiation targeted the left buccal pouch mucosa at a rate of 121.5 cGy/minute. The left buccal pouch was everted, fixed and isolated using a lead shield. Prior to and following radiation on day 0, each animal was dosed with their respective test materials in the manner described below. Also, immediately prior to radiation, the buccal mucosa was everted and any excess test material solution was wiped away using a clean tissue or cotton swab.
The respective test materials were then applied topically TID to the irradiated mucosa of each animal on day 1 to day 20 of the study. To accomplish this, a tuberculin syringe without a needle, containing 0.25 ml of the test material, was inserted into the base of the left cheek pouch and the test material deposited accordingly. This was done TID (first between 8-9:00 am; second between […] and 1:00 pm; third between 4-6:00 pm). Any developing mucositis was evaluated and scored on alternate days from day 6-28. Each animal was also weighed and its survival recorded on day 1 to day 28.
During the study, each animal was tested for mucositis scores, weight change and survival. For the evaluation of mucositis, the animals were anesthetized with inhalation anesthetics, and the left pouch everted. The developing mucositis was scored visually by comparison to a validated photographic scale, ranging from 0 for normal, to 5 for severe ulceration (clinical scoring). In descriptive terms, this scale is defined in the following table:
A mucositis score of 1-2 represents a mild stage of the disease. A score of 3-5 indicates moderate to severe mucositis. Following visual scoring, a photograph was taken of each animal's mucosa using a standardized technique. At the conclusion of the experiment, all film was developed and the photographs randomly numbered. At least two independent trained observers graded the photographs in blinded fashion using the above-described scale (blinded scoring). Results of the mucositis scores are graphically illustrated in FIG. 1.
The animal study described in Example 2 was then repeated with an identical protocol but with modified ADP-ribose doses. The groups in this study were treated with water (control), ADP-ribose at 100 μg/ml in water (Compound F), ADP-ribose at 45 μg/ml in water (Compound G), and ADP-ribose at 15 μg/ml in water (Compound H). […] Animals in the control group had mucositis scores ≧3 for approximately 10 days, whereas the ADP-ribose group had scores of approximately 3 for only 4 days.

5′-adenosine-diphosphate ribose [ADP-ribose]
severity of oral mucositis (average oral mucositis scores, FIG. 1) (Example 3, ADP-ribose at 100 μg/ml in water (Compound D group)): decreased the severity of oral mucositis
severity of oral mucositis (average oral mucositis scores, FIG. 1) (Example 3, ADP-ribose at 500 μg/ml (Compound E group)): decreased the severity of oral mucositis
effect on oral mucositis at 100 μg/ml compared with 500 μg/ml (Example 3, FIG. 1, comparison of the two ADP-ribose concentrations): superior to that of ADP-ribose at 500 μg/ml
healing of oral mucositis (Example 4, Animal Study II, FIG. 2, ADP-ribose at a 45 μg/ml dose (Compound G)): maximum healing of oral mucositis that was statistically significant
time with mucositis scores of approximately 3 (Example 4, Animal Study II, FIG. 2, ADP-ribose group, control group had scores ≧3 for approximately 10 days): 4 days
healing of ulcers associated with mucositis (mucositis score ≧3) relative to the control (Example 4, Animal Study II, FIG. 2, ADP-ribose treatment groups (100, 45, 15 μg/ml in water)): healed faster
